One block for each molecule: values may come before it. Activity calls are given as the source filed them. The rule behind the calls is not given here.
What was measured:
[1] = molecular target: T1, NAD-dependent protein deacetylase sirtuin-2 (Homo sapiens, UniProt Q8IXJ6); experiment: Inhibition of human Sirt2 (56 to 356 residues) deacetylation expressed in Escherichia coli BL21 (DE3) using ZMAL as substrate incubated for 4 hrs in presence of NAD+ by fluorescence based microplate reader assay
T1 sequence (Q8IXJ6 whole entry): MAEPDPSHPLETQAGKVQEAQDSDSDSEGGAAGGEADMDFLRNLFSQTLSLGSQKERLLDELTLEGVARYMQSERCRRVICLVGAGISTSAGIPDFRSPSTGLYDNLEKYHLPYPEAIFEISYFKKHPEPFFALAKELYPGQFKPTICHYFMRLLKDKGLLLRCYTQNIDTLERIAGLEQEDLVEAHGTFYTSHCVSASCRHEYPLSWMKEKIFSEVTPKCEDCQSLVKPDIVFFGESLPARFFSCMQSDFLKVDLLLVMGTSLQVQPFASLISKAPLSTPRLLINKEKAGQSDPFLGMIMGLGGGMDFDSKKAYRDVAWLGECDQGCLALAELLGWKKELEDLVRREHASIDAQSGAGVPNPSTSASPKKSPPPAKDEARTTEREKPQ

[2] = molecular target: T1, NAD-dependent protein deacetylase sirtuin-2; experiment: Inhibition of human Sirt2 (56 to 356 residues) demyristoylation expressed in Escherichia coli BL21 (DE3) using ZMML as substrate incubated for 4 hrs in presence of NAD+ by fluorescence based microplate reader assay
[3] = molecular target: T2, NAD-dependent protein deacetylase sirtuin-2 (Homo sapiens) (UniProt Q8IXJ6); conditions: PC-3M-luc, dose 20.0 µM, time 6.0 hrs
T2 sequence (whole entry): T1 sequence (Q8IXJ6 whole entry)

PC-3M-luc = conditions: Homo sapiens, dose 10-20 µM, time 3.0 day
[4] = molecular target: T2, NAD-dependent protein deacetylase sirtuin-2 (Homo sapiens); experiment: Induction of human Sirt2 stabilization (56 to 356 residues) expressed in Escherichia coli BL21 (DE3) assessed as change in melting temperature at 25 uM in presence of NAD+ by differential scanning fluorimetry analysis
HeLa = experiment: Cytotoxicity against human HeLa cells at 1 to 25 uM incubated for 72 hrs by MTS assay; assay type: functional, cell-based; conditions: dose 1-25 µM
[5] = molecular target: T1, NAD-dependent protein deacetylase sirtuin-2; experiment: Inhibition of recombinant human C-terminal His-tagged Sirt2 (50 to 356 residues) expressed in Escherichia coli using QPKKac as substrate
[6] = molecular target: T1, NAD-dependent protein deacetylase sirtuin-2; experiment: Inhibition of recombinant human C-terminal His-tagged Sirt2 (50 to 356 residues) expressed in Escherichia coli using r ETDKmyr as substrate
[7] = Inhibition of schistosoma mansoni Sirt2 (21 to 322 residues) deacetylation expressed in Escherichia coli BL21 (DE3) using ZMAL as substrate incubated for 1 hr in presence of NAD+ by fluorescence based microplate reader assay

SMILES: Cc1c(F)cccc1CN1CCCC(Cc2nc(-c3ccc(NC(=O)NCc4ccccc4)cc3)no2)C1 (stereo unspecified)
IC50 [1]: 1.07 µM
IC50 [2]: 10.2 µM

SMILES: Cc1cc(C)nc(SCC(=O)Nc2ncc(Cc3cccc(OCc4cn(Cc5ccc(OCCN6CCOCC6)cc5)nn4)c3)s2)n1
IC50 [2]: 2.4 µM
inhibition [3]: Active
inhibition (PC-3M-luc): Active

SMILES: Cc1c(F)cccc1CN1CCCC(Cc2nc(-c3ccc(NC(=S)Nc4ccccc4)cc3)no2)C1 (stereo unspecified)
IC50 [1]: 0.9 µM
IC50 [2]: 6.2 µM

SMILES: Cc1c(F)cccc1CN1CCCC(Cc2nc(-c3ccc(N)cc3)no2)C1 (stereo unspecified)
IC50 [1]: 17.8 µM
IC50 [2]: 22.2 µM
Activity [4]: inactive
Activity (HeLa): inactive
inhibition [3]: inactive
inhibition (PC-3M-luc): inactive

SMILES: COc1ccc(CC(=O)Nc2ccc(-c3noc(CC4CCCN(Cc5cccc(F)c5C)C4)n3)cc2)cc1 (stereo unspecified)
IC50 [1]: 1.1 µM
IC50 [2]: 27.7 µM

SMILES: CCCCCCCCCCCCNC(=S)NCCCC[C@H](NS(C)(=O)=O)C(=O)N[C@@H](C)C(=O)N[C@@H](CCCNC(=N)N)C(N)=O
IC50 [5]: 0.04 µM
IC50 [6]: 0.17 µM

SMILES: CC(=O)Nc1ccc(-c2noc(CC3CCCN(Cc4cccc(F)c4C)C3)n2)cc1 (stereo unspecified)
IC50 [2]: 11 µM
IC50 [7]: 14 µM

Further lines, results first:

IC50 [1]: 0.88 µM
IC50 [2]: 22.3 µM
SMILES: COc1cccc(C(=O)Nc2ccc(-c3noc(CC4CCCN(Cc5cccc(F)c5C)C4)n3)cc2)c1 (stereo unspecified)

IC50 [1]: 0.43 µM
IC50 [2]: 12.6 µM
SMILES: COc1ccc(C(=O)Nc2ccc(-c3noc(CC4CCCN(Cc5cccc(F)c5C)C4)n3)cc2)cc1 (stereo unspecified)

IC50 [1]: 0.21 µM
IC50 [2]: 20.1 µM
SMILES: Cc1c(F)cccc1CN1CCCC(Cc2nc(-c3ccc(NC(=O)Nc4ccccc4)cc3)no2)C1 (stereo unspecified)

IC50 [1]: 0.62 µM
IC50 [2]: 25 µM
SMILES: COc1ccc(NC(=O)Nc2ccc(-c3noc(CC4CCCN(Cc5cccc(F)c5C)C4)n3)cc2)cc1 (stereo unspecified)

IC50 [1]: 0.67 µM
SMILES: Cc1c(F)cccc1CN1CCCC(Cc2nc(-c3ccc(NC(=O)c4ccc(Cl)s4)cc3)no2)C1 (stereo unspecified)

IC50 [1]: 0.64 µM
IC50 [2]: 6.65 µM
inhibition [3]: Active
SMILES: Cc1c(F)cccc1CN1CCCC(Cc2nc(-c3ccc(NC(=S)NCc4ccccc4)cc3)no2)C1 (stereo unspecified)
